Data set [1] is described as follows: Acute Toxicity in white mice after oral administration. The data set is classed as in vivo. Conditions: mouse, in vivo, single dose of 300 mg/kg, observation time 14 days. On the procedure:
(§1) The acute toxicity of the test compounds was determined in white mice after oral administration of a single dose of 300 mg/kg (observation time: 14 days).

In another data set the test system is white mice. Described as above. The data set is classed as in vivo. Conditions: single dose of 300 mg/kg, observation time 14 days. On the procedure:
as §1

Molecules are shown by their SMILES.

`COc1cc([S+](C)[O-])ccc1-c1nc2ncncc2[nH]1` (stereo not drawn) [H, 8-(2-Methoxy-4-methylsulfinyl-phenyl)-purine] registered an LD50 at 336 h in data set [1] of around 300 mg/kg. Also, the animals died in the data set with white mice is reported as 3 out of 6.
Regarding `COc1ccc(-c2nc3ncncc3[nH]2)c(OC)c1` [A, 8-(2,4-Dimethoxy-phenyl)-purine], the LD50 at 336 h in data set [1] is above 300 mg/kg. Moreover, in the data set on white mice, the animals died is reported as 0 out of 6.
`COc1ccc(-c2nc3ncncc3[nH]2)c(OCC[S+](C)[O-])c1` (stereo not drawn) [D, 8-[4-Methoxy-2-(2-methylsulfinyl-ethoxy)-phenyl]purine] registered a 50% lethal dose (LD50) at 336 h in data set [1] above 300 mg/kg. In addition, in the data set with white mice, the animals died is 0 out of 6.
Turning to `COc1ccc(-c2nc3ncncc3[nH]2)c(OCCSC)c1` [C, 8-[4-Methoxy-2-(2-methylmercapto-ethoxy)-phenyl]purine], the LD50 at 336 h in data set [1] was above 300 mg/kg. Besides, the animals died in the data set with white mice was 0 out of 6.
The matching figures for `COc1cc(Cl)ccc1-c1nc2ncncc2[nH]1` [G, 8-(4-Chloro-2-methoxy-phenyl)-purine]: above 300 mg/kg and 1 out of 6.
The matching figures for `COc1cc(SC)ccc1-c1nc2ncncc2[nH]1` [B, 8-(2-Methoxy-4-methylmercapto-phenyl)-purine]: above 300 mg/kg and 2 out of 6.

In general, LD50 refers to the dose expected to kill half of the subjects tested. A higher LD50 goes with a less toxic substance.

For the origin of these results see patent US4299834A, “8-Phenyl-purines and pharmaceutical compositions containing same” (Boehringer Ingelheim Gesellschaft mit beschrankter Haftung, priority 1979, dated 1981).
